Values quoted from earlier work, collected in patent publication US8633323B2, “Process for preparing bis(thiohydrazide amides)” (Synta Pharmaceuticals Corp., priority 2008, dated 2014).

Legend:
[1] = system: stage 1V metastatic melanoma; details: in combination with Taxol, in relation to patients treated with Taxol alone; patients suffering from stage 1V metastatic melanoma
[2] = background statement: effective administration has been challenging

What does the source list for CN(NC(=O)CC(=O)NN(C)C(=S)c1ccccc1)C(=S)c1ccccc1 [N-malonyl-bis(N′-methyl-N′-thiobenzoylhydrazide)]?
time to progress [1]: increase the time to progress; solubility [2]: low solubility
